According to PubChem BioAssay AID1963850 (Molecular Pharmacology Branch, DTP, NCI, 2024):

System: 192522-019-R-J2-PDC complex tumor spheroid viability
Assay: Anticancer human tumor 192522-019-R-J2-PDC patient-derived colon adenocarcinoma cell line growth inhibition [POLQ]
Details: for IC50: curve of first compound; for viability, T/C: stronger effect = lower value
Method in brief: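 Growth inhibition in 3D: complex spheroids (tumor PDC, HUVEC, MSC) treated with POLQ inhibitor combinations; where Cmax unknown, highest tested concentration 10 microM, except SN-38 at 1 microM.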

[1] = second compound 0.0316 µM, first compound 0.0316 µM
[2] = second compound 0.0316 µM, first compound 0.1 µM
[3] = second compound 0.0316 µM, first compound 0.316 µM
[4] = second compound 0.0316 µM, first compound 1 µM
[5] = second compound 0.0316 µM, first compound 3.16 µM
[6] = second compound 0.0316 µM, first compound 10 µM
[7] = second compound 0.1 µM, first compound 0.0316 µM
[8] = second compound 0.1 µM, first compound 0.1 µM
[9] = second compound 0.1 µM, first compound 0.316 µM
[10] = second compound 0.1 µM, first compound 1 µM
[11] = second compound 0.1 µM, first compound 3.16 µM
[12] = second compound 0.1 µM, first compound 10 µM
[13] = second compound 0.316 µM, first compound 0.0316 µM
[14] = second compound 0.316 µM, first compound 0.1 µM
[15] = second compound 0.316 µM, first compound 0.316 µM
[16] = second compound 0.316 µM, first compound 1 µM
[17] = second compound 0.316 µM, first compound 3.16 µM
[18] = second compound 0.316 µM, first compound 10 µM
[19] = second compound 1 µM, first compound 0.0316 µM
[20] = second compound 1 µM, first compound 0.1 µM
[21] = second compound 1 µM, first compound 0.316 µM
[22] = second compound 1 µM, first compound 1 µM
[23] = second compound 1 µM, first compound 3.16 µM
[24] = second compound 1 µM, first compound 10 µM
[25] = second compound 3.16 µM, first compound 0.0316 µM
[26] = second compound 3.16 µM, first compound 0.1 µM
[27] = second compound 3.16 µM, first compound 0.316 µM
[28] = second compound 3.16 µM, first compound 1 µM
[29] = second compound 3.16 µM, first compound 3.16 µM
[30] = second compound 3.16 µM, first compound 10 µM
[31] = second compound 10 µM, first compound 0.0316 µM
[32] = second compound 10 µM, first compound 0.1 µM
[33] = second compound 10 µM, first compound 0.316 µM
[34] = second compound 10 µM, first compound 1 µM
[35] = second compound 10 µM, first compound 3.16 µM
[36] = second compound 10 µM, first compound 10 µM
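Also: spheroids exposed to drugs for seven days before reading.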
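For viability, T/C in this document: 100% = DMSO vehicle control viability in luminescence.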

## CC1COCCN1c1cc(C2(S(C)(=N)=O)CC2)nc(-c2ccnc3[nH]ccc23)n1 (stereo not drawn) + COC1C(OC(N)=O)C(O)C(Oc2ccc3c(O)c(NC(=O)c4ccc(O)c(CC=C(C)C)c4)c(=O)oc3c2C)OC1(C)C
Second compound 0.0316 µM
  IC50: 4.72 µM
Second compound 0.1 µM
  IC50: 4.58 µM
Second compound 0.316 µM
  IC50: 3.33 µM
Second compound 1 µM
  IC50: 5.31 µM
Second compound 3.16 µM
  IC50: 5.42 µM
Second compound 10 µM
  IC50: 5.18 µM
[1]
  viability, T/C: 108%
[2]
  viability, T/C: 94.3%
[3]
  viability, T/C: 99.6%
[4]
  viability, T/C: 97.3%
[5]
  viability, T/C: 61.3%
[6]
  viability, T/C: 28.7%
[7]
  viability, T/C: 118%
[8]
  viability, T/C: 99%
[9]
  viability, T/C: 103%
[10]
  viability, T/C: 95.4%
[11]
  viability, T/C: 56.2%
[12]
  viability, T/C: 36.1%
[13]
  viability, T/C: 103%
[14]
  viability, T/C: 99.2%
[15]
  viability, T/C: 108%
[16]
  viability, T/C: 95.8%
[17]
  viability, T/C: 51%
[18]
  viability, T/C: 31.9%
[19]
  viability, T/C: 101%
[20]
  viability, T/C: 103%
[21]
  viability, T/C: 99%
[22]
  viability, T/C: 97.3%
[23]
  viability, T/C: 63.1%
[24]
  viability, T/C: 34%
[25]
  viability, T/C: 102%
[26]
  viability, T/C: 109%
[27]
  viability, T/C: 104%
[28]
  viability, T/C: 91.8%
[29]
  viability, T/C: 60.9%
[30]
  viability, T/C: 37.8%
[31]
  viability, T/C: 104%
[32]
  viability, T/C: 103%
[33]
  viability, T/C: 114%
[34]
  viability, T/C: 95.7%
[35]
  viability, T/C: 62.9%
[36]
  viability, T/C: 33.2%

## C=CCn1c(=O)c2cnc(Nc3ccc(N4CCN(C)CC4)cc3)nc2n1-c1cccc(C(C)(C)O)n1 + Cc1cccc(N(C)C(=O)C2C(O)CCN2c2nc(C)cc(C(F)(F)F)c2C#N)c1
Second compound 0.0316 µM
  IC50: 0.796 µM
Second compound 0.1 µM
  IC50: 0.812 µM
Second compound 0.316 µM
  IC50: 0.893 µM
Second compound 1 µM
  IC50: > 1 µM
Second compound 3.16 µM
  IC50: > 1 µM
Second compound 10 µM
  IC50: 0.916 µM
Second compound 0.0316 µM, first compound 0.00316 µM
  viability, T/C: 98.9%
Second compound 0.0316 µM, first compound 0.01 µM
  viability, T/C: 106%
[1]
  viability, T/C: 102%
[2]
  viability, T/C: 108%
[3]
  viability, T/C: 92.6%
[4]
  viability, T/C: 39.5%
Second compound 0.1 µM, first compound 0.00316 µM
  viability, T/C: 99.7%
Second compound 0.1 µM, first compound 0.01 µM
  viability, T/C: 99.3%
[7]
  viability, T/C: 102%
[8]
  viability, T/C: 106%
[9]
  viability, T/C: 90%
[10]
  viability, T/C: 40.4%
Second compound 0.316 µM, first compound 0.00316 µM
  viability, T/C: 111%
Second compound 0.316 µM, first compound 0.01 µM
  viability, T/C: 110%
[13]
  viability, T/C: 105%
[14]
  viability, T/C: 110%
[15]
  viability, T/C: 98.6%
[16]
  viability, T/C: 44.4%
Second compound 1 µM, first compound 0.00316 µM
  viability, T/C: 112%
Second compound 1 µM, first compound 0.01 µM
  viability, T/C: 95.2%
[19]
  viability, T/C: 107%
[20]
  viability, T/C: 109%
[21]
  viability, T/C: 105%
[22]
  viability, T/C: 50.4%
Second compound 3.16 µM, first compound 0.00316 µM
  viability, T/C: 116%
Second compound 3.16 µM, first compound 0.01 µM
  viability, T/C: 110%
[25]
  viability, T/C: 109%
[26]
  viability, T/C: 106%
[27]
  viability, T/C: 89%
[28]
  viability, T/C: 56.9%
Second compound 10 µM, first compound 0.00316 µM
  viability, T/C: 109%
Second compound 10 µM, first compound 0.01 µM
  viability, T/C: 115%
[31]
  viability, T/C: 119%
[32]
  viability, T/C: 105%
[33]
  viability, T/C: 102%
[34]
  viability, T/C: 45.6%

## C=CC(=O)N1CCN(c2nc(=O)n(-c3c(C)ccnc3C(C)C)c3nc(-c4c(O)cccc4F)c(F)cc23)C(C)C1 (stereo not drawn) + COC1C(OC(N)=O)C(O)C(Oc2ccc3c(O)c(NC(=O)c4ccc(O)c(CC=C(C)C)c4)c(=O)oc3c2C)OC1(C)C
Second compound 0.0316 µM
  IC50: > 10 µM
Second compound 0.1 µM
  IC50: > 10 µM
Second compound 0.316 µM
  IC50: > 10 µM
Second compound 1 µM
  IC50: > 10 µM
Second compound 3.16 µM
  IC50: > 10 µM
Second compound 10 µM
  IC50: > 10 µM
[1]
  viability, T/C: 107%
[2]
  viability, T/C: 96.2%
[3]
  viability, T/C: 103%
[4]
  viability, T/C: 98.7%
[5]
  viability, T/C: 107%
[6]
  viability, T/C: 97%
[7]
  viability, T/C: 101%
[8]
  viability, T/C: 91.1%
[9]
  viability, T/C: 93.3%
[10]
  viability, T/C: 96.5%
[11]
  viability, T/C: 101%
[12]
  viability, T/C: 105%
[13]
  viability, T/C: 103%
[14]
  viability, T/C: 101%
[15]
  viability, T/C: 101%
[16]
  viability, T/C: 99.7%
[17]
  viability, T/C: 105%
[18]
  viability, T/C: 114%
[19]
  viability, T/C: 97.7%
[20]
  viability, T/C: 105%
[21]
  viability, T/C: 112%
[22]
  viability, T/C: 110%
[23]
  viability, T/C: 109%
[24]
  viability, T/C: 121%
[25]
  viability, T/C: 103%
[26]
  viability, T/C: 105%
[27]
  viability, T/C: 109%
[28]
  viability, T/C: 106%
[29]
  viability, T/C: 117%
[30]
  viability, T/C: 102%
[31]
  viability, T/C: 104%
[32]
  viability, T/C: 92.5%
[33]
  viability, T/C: 105%
[34]
  viability, T/C: 96.8%
[35]
  viability, T/C: 118%
[36]
  viability, T/C: 107%

## CNCc1ccc(-c2[nH]c3cc(F)cc4c3c2CCNC4=O)cc1 + Cc1cccc(N(C)C(=O)C2C(O)CCN2c2nc(C)cc(C(F)(F)F)c2C#N)c1
Second compound 0.0316 µM
  IC50: > 10 µM
Second compound 0.1 µM
  IC50: > 10 µM
Second compound 0.316 µM
  IC50: > 10 µM
Second compound 1 µM
  IC50: > 10 µM
Second compound 3.16 µM
  IC50: > 10 µM
Second compound 10 µM
  IC50: > 10 µM
[1]
  viability, T/C: 109%
[2]
  viability, T/C: 96.2%
[3]
  viability, T/C: 96.8%
[4]
  viability, T/C: 100%
[5]
  viability, T/C: 121%
[6]
  viability, T/C: 91.2%
[7]
  viability, T/C: 103%
[8]
  viability, T/C: 104%
[9]
  viability, T/C: 112%
[10]
  viability, T/C: 108%
[11]
  viability, T/C: 101%
[12]
  viability, T/C: 111%
[13]
  viability, T/C: 101%
[14]
  viability, T/C: 113%
[15]
  viability, T/C: 111%
[16]
  viability, T/C: 103%
[17]
  viability, T/C: 106%
[18]
  viability, T/C: 102%
[19]
  viability, T/C: 108%
[20]
  viability, T/C: 115%
[21]
  viability, T/C: 103%
[22]
  viability, T/C: 112%
[23]
  viability, T/C: 104%
[24]
  viability, T/C: 110%
[25]
  viability, T/C: 113%
[26]
  viability, T/C: 113%
[27]
  viability, T/C: 102%
[28]
  viability, T/C: 102%
[29]
  viability, T/C: 122%
[30]
  viability, T/C: 110%
[31]
  viability, T/C: 107%
[32]
  viability, T/C: 106%
[33]
  viability, T/C: 112%
[34]
  viability, T/C: 107%
[35]
  viability, T/C: 113%
[36]
  viability, T/C: 108%
